Reference: PubChem BioAssay AID330 (DTP/NCI, 2004)
Values joined by “and” are separate entries in the source; they are usually repeats but may differ in a detail not shown here. Equal values may be shown once. Toxic doses and inconclusive results are not listed.

System: P388 leukemia ip, CD2F1 mice, survival T/C
Assay: NCI In Vivo Anticancer Drug Screen. Data for tumor model P388 Leukemia (intraperitoneal) in CD2F1 (CDF1) mice
Conditions: endpoint: median survival time, higher = longer survival
Method in brief: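 Mice carrying the transplanted tumor received test compound or vehicle. Survival was recorded in each group, and the value is the treated-group measurement divided by that of the vehicle-treated control group.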

[1] = dose: 100.0 mg/kg/injection, schedule: Q01DX009 (ip), vehicle: saline
[2] = dose: 200.0 mg/kg/injection, schedule: Q01DX009 (ip), vehicle: saline
[3] = dose: 3.13 mg/kg/injection, schedule: Q01DX009 (ip), vehicle: other
[4] = dose: 12.5 mg/kg/injection, schedule: Q01DX009 (ip), vehicle: distilled water + Tween-80
[5] = dose: 25.0 mg/kg/injection, schedule: Q01DX009 (ip), vehicle: distilled water + Tween-80
[6] = dose: 50.0 mg/kg/injection, schedule: Q01DX009 (ip), vehicle: distilled water + Tween-80
[7] = dose: 60.0 mg/kg/injection, schedule: Q01DX005 (ip), vehicle: Klucel (hydroxypropylcellulose) (HPC)
[8] = dose: 200.0 mg/kg/injection, schedule: Q01DX009 (ip), vehicle: distilled water + Tween-80
[9] = dose: 50.0 mg/kg/injection, schedule: Q01DX009 (ip), vehicle: Klucel (hydroxypropylcellulose) (HPC)
[10] = dose: 100.0 mg/kg/injection, schedule: Q01DX009 (ip), vehicle: Klucel (hydroxypropylcellulose) (HPC)
[11] = dose: 200.0 mg/kg/injection, schedule: Q01DX009 (ip), vehicle: Klucel (hydroxypropylcellulose) (HPC)
[12] = dose: 60.0 mg/kg/injection, schedule: Q01DX005 (ip), vehicle: saline with Tween-80
[13] = dose: 120.0 mg/kg/injection, schedule: Q01DX005 (ip), vehicle: saline with Tween-80
[14] = dose: 240.0 mg/kg/injection, schedule: Q01DX005 (ip), vehicle: saline with Tween-80
[15] = dose: 50.0 mg/kg/injection, schedule: Q04DX003 (ip), vehicle: saline with Tween-80
[16] = dose: 100.0 mg/kg/injection, schedule: Q04DX003 (ip), vehicle: saline with Tween-80
[17] = dose: 200.0 mg/kg/injection, schedule: Q04DX003 (ip), vehicle: saline with Tween-80
[18] = dose: 6.25 mg/kg/injection, schedule: Q01DX009 (ip), vehicle: saline with Tween-80
[19] = dose: 12.5 mg/kg/injection, schedule: Q01DX009 (ip), vehicle: saline with Tween-80
[20] = dose: 25.0 mg/kg/injection, schedule: Q01DX009 (ip), vehicle: saline with Tween-80
[21] = dose: 50.0 mg/kg/injection, schedule: Q01DX009 (ip), vehicle: saline with Tween-80
[22] = dose: 100.0 mg/kg/injection, schedule: Q01DX009 (ip), vehicle: saline with Tween-80
[23] = dose: 200.0 mg/kg/injection, schedule: Q01DX009 (ip), vehicle: saline with Tween-80

In the case of `O=C(O)CP(=O)(O)O`, the T/C (dose: 4.0 mg/kg/injection, schedule: Q01DX009 (ip), vehicle: saline) is reported as 94 % of control, the T/C (dose: 6.25 mg/kg/injection, schedule: Q01DX009 (ip), vehicle: saline) is reported as 100 % of control and the T/C (dose: 8.0 mg/kg/injection, schedule: Q01DX009 (ip), vehicle: saline) is reported as 99 % of control. The T/C (dose: 12.5 mg/kg/injection, schedule: Q01DX009 (ip), vehicle: saline) was 101 % of control, the T/C (dose: 16.0 mg/kg/injection, schedule: Q01DX009 (ip), vehicle: saline) was 91 % of control and the T/C (dose: 25.0 mg/kg/injection, schedule: Q01DX009 (ip), vehicle: saline) was 106 % of control. The T/C (dose: 32.0 mg/kg/injection, schedule: Q01DX009 (ip), vehicle: saline) was 100 % of control, the T/C (dose: 50.0 mg/kg/injection, schedule: Q01DX009 (ip), vehicle: saline) was 103 % of control and the T/C (dose: 64.0 mg/kg/injection, schedule: Q01DX009 (ip), vehicle: saline) was 102 % of control. The T/C [1] was 103 % of control, the T/C (dose: 128.0 mg/kg/injection, schedule: Q01DX009 (ip), vehicle: saline) was 94 % of control and the T/C [2] was 106 % of control. For the same compound, the T/C (dose: 400.0 mg/kg/injection, schedule: Q01DX009 (ip), vehicle: saline) was 101 % of control and the T/C (dose: 800.0 mg/kg/injection, schedule: Q01DX009 (ip), vehicle: saline) was 106 % of control.

For `COc1cccc2c1C(=O)c1c(O)c3c(c(O)c1C2=O)CC(O)(C(=O)COC(C)=O)CC3OC1CC(NC(C)=O)C(O)C(C)O1` (stereo not given), the T/C (dose: 0.78 mg/kg/injection, schedule: Q01DX009 (ip), vehicle: other) was 122 % of control and the T/C [3] was 120 % of control.

In the case of `O=C1c2cccc3cc([N+](=O)[O-])cc(c23)C(=O)N1CCCNCCNCCCN1C(=O)c2cccc3cc([N+](=O)[O-])cc(c23)C1=O`, the T/C (dose: 50.0 mg/kg/injection, schedule: Q01DX005 (ip), vehicle: saline with Tween-80) is reported as 92 % of control and the T/C (dose: 100.0 mg/kg/injection, schedule: Q01DX005 (ip), vehicle: saline with Tween-80) is reported as 154 % of control.

`C1COCCNCCOCCOCCN1` was tested, and the T/C (dose: 50.0 mg/kg/injection, schedule: Q01DX005 (ip), vehicle: saline) was 95 % of control, the T/C (dose: 100.0 mg/kg/injection, schedule: Q01DX005 (ip), vehicle: saline) was 106 % of control and the T/C (dose: 200.0 mg/kg/injection, schedule: Q01DX005 (ip), vehicle: saline) was 95 % of control.

In the case of `CCc1nc(N)nc(N)c1-c1ccc(Cl)c(N=[N+]=[N-])c1`, the T/C (dose: 3.13 mg/kg/injection, schedule: Q01DX009 (ip), vehicle: distilled water + Tween-80) is reported as 99 % of control, the T/C (dose: 6.25 mg/kg/injection, schedule: Q01DX009 (ip), vehicle: distilled water + Tween-80) is reported as 102 % of control and the T/C [4] is reported as 107 % of control. The T/C (dose: 15.0 mg/kg/injection, schedule: Q01DX005 (ip), vehicle: Klucel (hydroxypropylcellulose) (HPC)) was 100 % of control, the T/C [5] was 110 % of control and 89 % of control and the T/C (dose: 30.0 mg/kg/injection, schedule: Q01DX005 (ip), vehicle: Klucel (hydroxypropylcellulose) (HPC)) was 108 % of control. The T/C [6] was 109 % of control, the T/C [7] was 106 % of control and 116 % of control and the T/C [8] was 151 % of control.

`O=C1C=C2OCOC2=CC1=O` was tested, and the T/C (dose: 4.38 mg/kg/injection, schedule: Q01DX005 (ip), vehicle: Klucel (hydroxypropylcellulose) (HPC)) was 100 % of control, the T/C (dose: 8.75 mg/kg/injection, schedule: Q01DX005 (ip), vehicle: Klucel (hydroxypropylcellulose) (HPC)) was 99 % of control and the T/C (dose: 17.5 mg/kg/injection, schedule: Q01DX005 (ip), vehicle: Klucel (hydroxypropylcellulose) (HPC)) was 103 % of control and 104 % of control.

In the case of `Brc1ccc2c(ccc3c2nnc2nccn23)c1`, the T/C [7] is reported as 91 % of control and 95 % of control, the T/C (dose: 120.0 mg/kg/injection, schedule: Q01DX005 (ip), vehicle: Klucel (hydroxypropylcellulose) (HPC)) is reported as 97 % of control and the T/C (dose: 240.0 mg/kg/injection, schedule: Q01DX005 (ip), vehicle: Klucel (hydroxypropylcellulose) (HPC)) is reported as 86 % of control and 94 % of control.

In the case of `CC(=N)C(C#N)C(=S)SCCC#N` (stereo not given), the T/C [9] is reported as 97 % of control, the T/C [10] is reported as 89 % of control and the T/C [11] is reported as 106 % of control.

For `Cn1c(=S)[nH]c2sc3c(c2c1=O)CCC3`, the T/C [12] was 96 % of control, the T/C [13] was 93 % of control and the T/C [14] was 89 % of control.

In the case of `CC1=CCC2C(=O)N(c3cc(C)on3)C(=O)C2C1` (stereo not given), the T/C [12] is reported as 97 % of control, the T/C [13] is reported as 100 % of control and the T/C [14] is reported as 90 % of control.

With `C1=NCc2nnn(Cc3ccccc3)c2N1` the T/C [9] was 102 % of control, the T/C [10] was 98 % of control and the T/C [11] was 108 % of control.

For `COc1cc2c(cc1OC)C(C)=NCC2`, the T/C (dose: 25.0 mg/kg/injection, schedule: Q01DX001 (ip), vehicle: saline) was 104 % of control, the T/C (dose: 50.0 mg/kg/injection, schedule: Q01DX001 (ip), vehicle: saline) was 95 % of control and the T/C (dose: 100.0 mg/kg/injection, schedule: Q01DX001 (ip), vehicle: saline) was 94 % of control. For the same compound, the T/C (dose: 200.0 mg/kg/injection, schedule: Q01DX001 (ip), vehicle: saline) was 98 % of control.

For `OC(Cc1cccnc1)(c1ccccc1)c1ccccc1`, the T/C [9] was 111 % of control, the T/C [10] was 109 % of control and the T/C [11] was 118 % of control.

`O=C(Nc1cccc2ccccc12)c1cc2c(cc1Br)OCO2` was tested, and the T/C [4] was 104 % of control, the T/C [5] was 95 % of control and the T/C [6] was 92 % of control. For the same compound, the T/C [8] was 90 % of control.

In the case of `C/C(=C\C=C1\N(C)c2ccccc2C1(C)C)N=C(C#N)C#N`, the T/C [15] is reported as 93 % of control, the T/C [16] is reported as 91 % of control and the T/C [17] is reported as 96 % of control.

For `CC[C@@]1(O)C[C@H](OC2CC(N(C)C)C(O)C(C)O2)c2c(cc3c(c2O)C(=O)c2c(O)ccc(O)c2C3=O)[C@H]1C(=O)OC` (stereo not given in full), the T/C (dose: 1.56 mg/kg/injection, schedule: Q01DX009 (ip), vehicle: other) was 110 % of control, the T/C [3] was 123 % of control and the T/C (dose: 6.25 mg/kg/injection, schedule: Q01DX009 (ip), vehicle: other) was 118 % of control.

For `CCCCC1SCC(=O)N1c1nncs1` (stereo not given), the T/C [12] was 104 % of control, the T/C [13] was 98 % of control and the T/C [14] was 103 % of control.

With `C=CCOc1cc2c(cc1C(C)(C)c1ccc(OC)cc1)OCO2` the T/C [12] was 118 % of control and the T/C [13] was 117 % of control.

In the case of `C1CC1C(=NN=C(C1CC1)C1CC1)C1CC1`, the T/C [18] is reported as 102 % of control, the T/C [19] is reported as 101 % of control and the T/C [20] is reported as 96 % of control.

`Nc1ncnc2nc(-c3ccccc3)[nH]c12` was tested, and the T/C [12] was 102 % of control, the T/C [13] was 100 % of control and the T/C [14] was 105 % of control.

`Nc1nc(N)c(N=Nc2ccccc2)c(=O)[nH]1` was tested, and the T/C [21] was 100 % of control, the T/C [15] was 86 % of control and the T/C [22] was 90 % of control. For the same compound, the T/C [16] was 95 % of control, the T/C [23] was 115 % of control and the T/C [17] was 95 % of control.

With `N#Cc1nc(CC(=O)c2ccc(Cl)c(Cl)c2)c(CC(=O)c2ccc(Cl)c(Cl)c2)nc1C#N` the T/C [12] was 114 % of control, the T/C [13] was 120 % of control and the T/C [14] was 86 % of control.

For `N=C(N)Sc1ccccn1`, the T/C [1] was 94 % of control and the T/C [2] was 101 % of control.

In the case of `CC1(C)C(=O)N2C(=O)CC(=O)N2C1=O`, the T/C [13] is reported as 97 % of control and the T/C [14] is reported as 93 % of control.

For `Cn1c(N)c(C(=O)Nc2ccccc2)c(=O)n(C)c1=O`, the T/C (dose: 100.0 mg/kg/injection, schedule: Q01DX001 (ip), vehicle: Klucel (hydroxypropylcellulose) (HPC)) was 87 % of control and the T/C (dose: 200.0 mg/kg/injection, schedule: Q01DX001 (ip), vehicle: Klucel (hydroxypropylcellulose) (HPC)) was 88 % of control.

`COc1ccc2c(c1)c(CC(N)=O)c(C)n2C(=O)c1ccc(Cl)nc1` was tested, and the T/C (dose: 52.75 mg/kg/injection, schedule: Q01DX005 (ip), vehicle: saline with Tween-80) was 94 % of control and the T/C (dose: 105.5 mg/kg/injection, schedule: Q01DX005 (ip), vehicle: saline with Tween-80) was 92 % of control.

With `CCCCCCCCCCCC1=C(O)C(=O)C=C(O)C1=O` the T/C [18] was 101 % of control, the T/C [19] was 106 % of control and the T/C [20] was 102 % of control.

`CC(C)OC(=S)NC(=O)c1ccccc1` was tested, and the T/C [21] was 109 % of control, the T/C [22] was 100 % of control and the T/C [23] was 103 % of control. The T/C (dose: 400.0 mg/kg/injection, schedule: Q01DX009 (ip), vehicle: saline with Tween-80) was 108 % of control.
